Experiments:
BChE = conditions: at 200 μM; cited from earlier work
AChE = conditions: at 200 μM; cited from earlier work
[1] = molecular target: human serum acetylcholinesterase (Homo sapiens, UniProt P22303); test: biochemical
Sequence of human serum acetylcholinesterase (P22303 32-574 limits assumed): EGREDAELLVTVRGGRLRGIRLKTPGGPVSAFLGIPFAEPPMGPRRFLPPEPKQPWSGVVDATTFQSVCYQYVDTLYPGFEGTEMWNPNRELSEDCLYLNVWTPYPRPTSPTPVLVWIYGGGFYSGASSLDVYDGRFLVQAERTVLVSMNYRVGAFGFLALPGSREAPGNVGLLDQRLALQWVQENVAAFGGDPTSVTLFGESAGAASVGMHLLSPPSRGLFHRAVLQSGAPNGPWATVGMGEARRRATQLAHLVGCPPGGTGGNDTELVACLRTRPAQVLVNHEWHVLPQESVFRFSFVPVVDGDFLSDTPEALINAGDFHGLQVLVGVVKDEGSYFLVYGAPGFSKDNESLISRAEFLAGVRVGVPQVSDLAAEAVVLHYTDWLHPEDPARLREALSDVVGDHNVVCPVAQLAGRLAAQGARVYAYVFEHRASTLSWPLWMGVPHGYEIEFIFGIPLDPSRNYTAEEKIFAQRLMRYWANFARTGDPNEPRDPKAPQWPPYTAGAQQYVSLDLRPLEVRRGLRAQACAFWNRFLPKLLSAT

| Structure (SMILES) | percentage inhibition, BChE (BChE) | percentage inhibition, AChE (AChE) | IC50 [1] |
| --- | --- | --- | --- |
| COc1ccc2c3c1O[C@H]1C[C@@H](O)C=C[C@@]31CCN(C)C2 [Galantamine] | 79.72 ± 0.33% | 78.76 ± 0.94% |  |
| COc1c(OC)c(OC)c2c(-c3ccccc3)c(-c3ccccc3)[nH]c2c1CNc1ccc([N+](=O)[O-])cc1 [indole amine 25, 4,5,6-Trimethoxy-7-(4′-nitrophenylaminomethyl)-2,3-diphenyl-(1H)-indole] |  |  | 4.28 µM |
| COc1c(OC)c(OC)c2c(-c3ccccc3)c(-c3ccccc3)[nH]c2c1CNc1ccccc1 [indole amine 23, 4,5,6-Trimethoxy-2,3-diphenyl-7-phenylaminomethyl-(1H)-indole] |  |  | 12.1 µM |
| COc1c(OC)c(OC)c2c(-c3ccccc3)c(-c3ccccc3)[nH]c2c1CNc1cccc([N+](=O)[O-])c1 [indole amine 24, 4,5,6-Trimethoxy-7-(3′-nitrophenylaminomethyl)-2,3-diphenyl-(1H)-indole] |  |  | 4.66 µM |

Reference: paper PMC9811652 (RSC Advances, 2023)
